The nature of data set [1]: Plasma corticosterone levels by ELISA after corticosterone feeding. The format is in vivo, mice. (An ELISA detects its analyte on a solid surface through an enzyme-linked reagent.)
Protocol: 35 μg/ml Corticosterone (Millipore Sigma, C2505) was dissolved in vehicle (0.45% hydroxypropyl-β-cyclodextrine in drinking water) in drinking water during the entire corticosterone feeding period. Corticosterone water was changed every 3 days to prevent degradation. Control animals received the vehicle water. Blood corticosterone levels were measured by ELISA (ARBOR assays, [MUT]-H1) according to the manufacturer's instruction. Serum was collected using the heparinized tubes (Microvette® CB 300 LH or Microvette® 300 LH, Sarstedt) between 10 a.m. and 12 p.m.
For a further data set, the system named is C57BL/6 mice. Nature of the data set: Hair cycle progression of C57BL/6 mice under chronic corticosterone feeding. It is filed as in vivo. The conditions noted are these: wild-type mice, supplemental corticosterone in drinking water from second telogen; vehicle mice entered anagen around P90-P100.
A further data set relates to hair follicle. The settings on record: corticosterone feeding mice.
Data set [2] concerns ADX mice. Nature of the data set: Hair cycle progression of ADX mice fed corticosterone in drinking water. The format is in vivo. The conditions noted are these: 35 μg/ml corticosterone in drinking water. The protocol: (§1) C57BL/6J mice were anesthetized. Small incisions were made on the back skin right on top of each adrenal gland. Both adrenal glands were removed with a pair of curved forceps. Sham-operated mice (Sham) underwent the same procedures as the ADX mice, except their adrenal glands were not removed.
The hair cycle progression was documented by standardized photographs at the start of each experiment and weekly thereafter. Anagen was determined by darkening of the skin followed by hair growth as previously described^75. The back skin of mice was shaved with an electric clipper to reveal skin colour changes and hair coat recovery. Once the hair coat recovery reached ˜90% of the back skin, the mice were shaved again to monitor the entry into next anagen. Telogen length was quantified as described previously^19.
Control animals received the vehicle water.

For data set [3], the system named is ADX mice. Nature of the data set: Hair cycle progression of ADX mice treated topically with R428. It is filed as in vivo. The settings on record: R428 2 mM in ethanol, topical once a day, back skin of ADX mice. The procedure:
as §1
RU486 (TCI America, Cat #M1732; 4% in ethanol) was used to induce K15-CrePGR by topical application for 10-14 days. To induce Pdgfra-CreER and Sox2-CreER, tamoxifen (Millipore Sigma, T5648; 20 mg/kg) was injected into mice intraperitoneally once per day for 4 to 6 days. To inhibit AXL activity, R428 (APExBIO, A8329; 2 mM in ethanol) was applied to ADX mice topically once a day. EdU (Lumiprobe Corporation, Cat #10540; 25 mg/kg) were administered by intraperitoneal injections. AAVs were produced as described previously^46 and injected directly into dermis through intradermal injections. 2-month-old C57BL/6J mice were injected with AAV-GFP or AAV-Gas6 (1×10^11 genome copy number per animal).
The hair cycle progression was documented by standardized photographs at the start of each experiment and weekly thereafter. Anagen was determined by darkening of the skin followed by hair growth as previously described^75. The back skin of mice was shaved with an electric clipper to reveal skin colour changes and hair coat recovery. […] Telogen length was quantified as described previously^19.

The next data set has as its system FACS-purified HFSCs. Nature of the data set: Colony formation assay of cultured HFSCs. It is filed as cell-based, mouse. The procedure: For the isolation of HFSCs, mouse dorsal skin was dissected, and the fat layer was removed using a surgical scalpel. The skin was incubated in trypsin-EDTA at 37° C. for 35-45 min on an orbital shaker. Single-cell suspension was obtained by scraping the epidermal side and filtering. Cells were centrifuged for 8 min at 350 g at 4° C., resuspended in 5% fetal bovine serum, and stained for 30-40 min. The following antibodies were used: CD49f (Integrin alpha 6)-PE (eBioscience, 12-0495-82; 1:500); CD34-eFlour660 (eBioscience, 50-0341-82; 1:100); Sca-1-PerCP-Cy5.5 (eBioscience, 45-5981-82; 1:1000); and CD45-eFlour450 (eBioscience, 48-0451-82; 1:250). The HFSCs were isolated as CD45^−, Integrin alpha 6^+, CD34^+, Sca-1^− cells.
FACS-purified HFSCs were plated on mitomycin C (P212121, Cat #M92010)-treated J2 fibroblast feeders at a density of 10,000 cells/well of 12-well plates, in E media supplemented with 15% (v/v) serum and 0.3 mM calcium as described in previous studies^78,79. For Gas6-treatment, E medium was supplemented with recombinant mouse Gas6 protein (R&D systems, Cat #8310-GS) at 500 ng/ml. For R428-treatment experiments, E medium was supplemented with R428 (APExBIO, Cat #A8329) at 1 μM. Cells were fixed and stained with 1% (wt/vol) Rhodamine B (Millipore Sigma, R6626). Colony diameter was measured from scanned images of plates using Image J.

“Also recorded” adds a separate entry of the source.

Protocol for C57BL/6 mice: The hair cycle progression was documented by standardized photographs at the start of each experiment and weekly thereafter. Anagen was determined by darkening of the skin followed by hair growth as previously described^75. The back skin of mice was shaved with an electric clipper to reveal skin colour changes and hair coat recovery. Once the hair coat recovery reached ˜90% of the back skin, the mice were shaved again to monitor the entry into next anagen. Telogen length was quantified as described previously^19. 35 μg/ml Corticosterone (Millipore Sigma, C2505) was dissolved in vehicle (0.45% hydroxypropyl-β-cyclodextrine in drinking water) in drinking water during the entire corticosterone feeding period. Corticosterone water was changed every 3 days to prevent degradation. Control animals received the vehicle water.
Protocol for hair follicle: 35 μg/ml Corticosterone (Millipore Sigma, C2505) was dissolved in vehicle (0.45% hydroxypropyl-β-cyclodextrine in drinking water) in drinking water during the entire corticosterone feeding period. Corticosterone water was changed every 3 days to prevent degradation. Control animals received the vehicle water.
The skin samples were fixed in 4% paraformaldehyde (PFA, Electron Microscopy Sciences, Cat #15713) for 15 min at room temperature, washed in phosphate buffered saline (PBS), immersed in 30% sucrose solution overnight at 4° C., and embedded in optimal cutting temperature compound (Sakura Finetek, Cat #4583). 35 μm thick sections were fixed in 4% PFA. The fixed slides were then blocked in blocking buffer (5% Donkey serum, 1% bovine serum albumin, 2% cold-water fish gelatin in 0.3% Triton X-100 in PBS) for 1 h at room temperature, incubated with primary antibodies overnight at 4° C., and incubated with secondary antibodies for 2-4 h at room temperature. The following antibodies and dilutions were used: CD34 (eBioscience, 14-0341-85, 1:100), P-Cadherin (R&D Systems, AF761, 1:400), GFP (Abcam, ab290, 1:5000) and Cleaved Caspase-3 (Cell Signaling Technology, 1:300). DAPI was used as a counterstain for the nucleus.

Consider `C[C@]12C[C@H](O)[C@H]3[C@@H](CCC4=CC(=O)CC[C@@]43C)[C@@H]1CC[C@@H]2C(=O)CO` [corticosterone], for which the plasma corticosterone levels entry in data set [1] (ADX mice, corticosterone in drinking water) is reported as “restored”. For the same molecule, the “corticosterone levels in the circulation” value in data set [1] (wild-type mice, supplemental corticosterone in drinking water) is listed as “enhanced corticosterone levels in the circulation”. Moreover, the “anagen entry (hair cycle progression)” value in the data set with C57BL/6 mice was “stayed in telogen”. In addition, the “abnormal cell death in hair follicle (aCAS3)” value in the data set on hair follicle was “does not display abnormal cell death”. In the data set on ADX mice [2], the “HFSC activation / quiescence (hair cycle progression)” value is on record as “effectively suppressed the aberrant activation of HFSCs; also recorded: suppress the loss of HFSC quiescence of ADX mice”.
On to `Nc1nc(Nc2ccc3c(c2)CC[C@@H](N2CCCC2)CC3)nn1-c1cc2c(nn1)-c1ccccc1CCC2` [R428], for which the “anagen entry / hair growth (hair cycle progression)” value in the data set with ADX mice [3] is on record as “suppressed their precocious anagen entry; also recorded: repress the phenotypes of ADX; also recorded: inhibit hair growth”. In addition, in the data set on FACS-purified HFSCs (R428 at 1 μM in E medium), the HFSC colony formation entry is “inhibited HFSC colony formation”.

B1: Gas6: recombinant mouse Gas6 protein (R&D systems, Cat #8310-GS); gamma-carboxyglutamic acid-containing secreted protein, AXL ligand (protein, UniProt Q61592 28-674, looked up)
Growth arrest-specific …: VLLRAREAAQFLRPRQRRAYQVFEEAKQGHLERECVEEVCSKEEAREVFENDPETEYFYPRYQECMRKYGRPEEKNPDFAKCVQNLPDQCTPNPCDKKGTHICQDLMGNFFCVCTDGWGGRLCDKDVNECVQKNGGCSQVCHNKPGSFQCACHSGFSLASDGQTCQDIDECTDSDTCGDARCKNLPGSYSCLCDEGYTYSSKEKTCQDVDECQQDRCEQTCVNSPGSYTCHCDGRGGLKLSPDMDTCEDILPCVPFSMAKSVKSLYLGRMFSGTPVIRLRFKRLQPTRLLAEFDFRTFDPEGVLFFAGGRSDSTWIVLGLRAGRLELQLRYNGVGRITSSGPTINHGMWQTISVEELERNLVIKVNKDAVMKIAVAGELFQLERGLYHLNLTVGGIPFKESELVQPINPRLDGCMRSWNWLNGEDSAIQETVKANTKMQCFSVTERGSFFPGNGFATYRLNYTRTSLDVGTETTWEVKVVARIRPATDTGVLLALVGDDDVVPISVALVDYHSTKKLKKQLVVLAVEDVALALMEIKVCDSQEHTVTVSLREGEATLEVDGTKGQSEVSTAQLQERLDTLKTHLQGSVHTYVGGLPEVSVISAPVTAFYRGCMTLEVNGKILDLDTASYKHSDITSHSCPPVEHATP
Regarding B1, the HFSC colony formation entry in the data set with FACS-purified HFSCs (recombinant mouse Gas6 protein at 500 ng/ml in E medium) is given as “formed more colonies”.

Source of the values: patent publication US20220387552A1, “METHODS OF MODULATING HAIR FOLLICLE STEM CELL QUIESCENCE BY MODULATING DERMAL NICHE ACTIVATOR GAS6” (President and Fellows of Harvard College, priority 2019, published 2022).
